In assay [1] the target is T1, neutral endopeptidase of cultivated human fibroblast (Homo sapiens, UniProt P08473).
T1 construct: followed by ultrasonic pulverization, whereby an enzyme solution was obtained; host or cells: normal human fibroblasts, Triton X-100 lysate after sonication
The assay can be described thus: Inhibition test on neutral endopeptidase activity of cultivated human fibroblast. It counts as biochemical. The following applies: enzyme solution from human fibroblast, substrate glutaryl-Ala-Ala-Phe-4-methoxy-2-naphthylamine. The text has this: Test 1 Inhibition Test on Neutral Endopeptidase Activity of Cultivated Human Fibroblast
Normal human fibroblast commercially available from Dainippon Pharmaceutical Co., Ltd. was subcultured on a DME medium containing 10% bovine fatal serum and provided for the present test. The cells peeled by a rubber-policeman from a Petri dish were floated in a phosphate-buffered physiological saline, collected by a low-velocity centrifuge, and washed three times with the same physiological saline. The cells were floated in a 0.1% Triton X-100/0.2M tris-HCl buffer (pH 8.0), followed by ultrasonic pulverization, whereby an enzyme solution was obtained.
The enzyme activity was measured as follows: To 100 μL of an MES buffer (100 mM, pH 6.5) added with sodium chloride (300 mM), were added 2 μL of the enzyme solution, 1 μL of a solution of the invention compound and, as a substrate for the measurement of enzyme activity, 1 μL of 20 mM glutalyl-Ala-Ala-Phe-4-methoxy-2-naphthylamine, followed by reaction at 37° C. for 1 hour. Phosphoramldon was added to the reaction mixture to give its final concentration of 0.4 μM and then, the reaction was terminated. Aminopeptidase M having a final concentration of 20 mU was added to the reaction mixture and the resulting mixture were reacted at 37° C. for 15 minutes. The amount of the resulting 4-methoxy-2-naphthylamine was determined by measuring the fluorescent strength at excited wavelength of 340 nm and fluorescent wavelength of 425 nm by a fluorospectrophotometer and % inhibition of the compound against enzyme activity was determined.

A further assay has as its system C3H mice. The assay can be described thus: Hair growth test (2) using mice. It is filed as in vivo. Here is the method:
(1) Preparation of a Test Sample
Each of Compounds 1 to 3 and 7 was dissolved in a 50% ethanol solution, whereby a 1 mM solution was prepared.
Papain powder (produced by CALBIOCHEM-NOVABIOCHEM CORPORATION) was dissolved in purified water to prepare a 2% aqueous solution, followed by the addition of an equal amount of ethanol to prepare a 1% ethanol solution.
Trypsin powder (produced by Sigma Aldrich Corporation) was dissolved in Hanks' Balanced Salt Solution (produced by Gibco BRL) having 1 mM EDTA-4Na dissolved therein, followed by the addition of an equal amount of ethanol to prepare a 1% ethanol solution.
Chymotrypsin powder (produced by Sigma Aldrich Corporation) was treated in a manner similar to that employed for trypsin, whereby a 1% ethanol solution was prepared.
The back of 6-week-old C3H mice (each group consisting of 5 mice) was, shaved by 2×4 cm^2 by electric hair clippers or an electric shaver so as not to injure its skin. The sample was applied in an amount of 100 μL/once to the shaved portion twice a day for 4 weeks. To a control group, only a solvent was applied. Three weeks after depilation, the picture of the shaved portion was taken at a fixed magnification in order to observe the regrowth hair and the area of the hair regrowth (area of regrowth hair/shaved area) was compared with that of the control group by using an image analyzer.

The mark [2] stands for this setting: compound 1 mM alone (Solvent column), 100 μL twice a day on shaved back.
The mark [3] stands for this setting: compound 1 mM combined with Papain 1%, 100 μL twice a day.
[4] abbreviates: proteolytic enzyme 1% alone (Solvent), 100 μL twice a day.

Peptide text beside a SMILES is read from it.

T1 sequence (P08473 whole entry): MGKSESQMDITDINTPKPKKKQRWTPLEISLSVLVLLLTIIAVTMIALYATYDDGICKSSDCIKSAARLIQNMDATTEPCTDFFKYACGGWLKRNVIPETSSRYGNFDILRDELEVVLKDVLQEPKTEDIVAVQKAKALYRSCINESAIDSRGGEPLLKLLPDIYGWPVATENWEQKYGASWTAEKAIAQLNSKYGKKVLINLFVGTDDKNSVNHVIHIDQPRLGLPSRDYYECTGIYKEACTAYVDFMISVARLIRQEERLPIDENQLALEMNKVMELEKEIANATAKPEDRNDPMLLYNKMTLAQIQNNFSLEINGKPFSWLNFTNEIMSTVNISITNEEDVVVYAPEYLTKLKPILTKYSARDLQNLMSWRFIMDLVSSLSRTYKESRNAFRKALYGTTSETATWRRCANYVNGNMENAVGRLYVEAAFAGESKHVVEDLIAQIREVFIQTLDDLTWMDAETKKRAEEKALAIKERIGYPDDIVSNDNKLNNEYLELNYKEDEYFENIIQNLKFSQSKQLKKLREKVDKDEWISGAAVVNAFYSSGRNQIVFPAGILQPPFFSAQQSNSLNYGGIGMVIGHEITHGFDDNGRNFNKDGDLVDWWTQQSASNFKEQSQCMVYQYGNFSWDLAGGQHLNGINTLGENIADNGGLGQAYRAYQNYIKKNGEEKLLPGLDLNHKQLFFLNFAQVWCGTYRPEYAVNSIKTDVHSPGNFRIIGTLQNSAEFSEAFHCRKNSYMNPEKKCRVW

Broadly, the inhibition is the relative decrease from the control value, in per cent. Read a low inhibition as a response near the control. `COC(=O)[C@H](Cc1ccccc1)NC(=O)[C@@H](N)CC(=O)O` [Aspartame, Asp-Phe-OMe (aspartame)] (H-Asp-Phe-OMe): the inhibition at 1000 µM in assay [1] (concentration 1 mM) was found to be 30.2%. In the case of `CC(C)CC(NP(=O)(O)CCc1ccccc1)C(=O)NC(Cc1c[nH]c2ccccc12)C(=O)O` (centres unmarked) [Compound 2], the “Hair growth inhibition 3 weeks after depilation” value (“Hair growth inhibition 3 weeks” below) with C3H mice (setting [2]) was 59.1; in the assay on C3H mice (setting [3]), 80.3.

Turning to `O=C(O)CCNC(=O)C(CS)Cc1ccccc1` (centres unmarked) [Compound 7], the “Hair growth inhibition 3 weeks” value in the assay on C3H mice (setting [2]) amounted to 59.7; with C3H mice (setting [3]) it was 77.9. Molecule `CCOC(=O)CNC(=O)CC(=O)OCC` [Compound 8] registered an inhibition at 1000 µM in assay [1] (concentration 1 mM) of 23.8 ± 2.7%. On to `CCOC(=O)CNC(=O)C(Cc1ccccc1)C(=O)OCC` (centres unmarked) [Compound 9], for which the inhibition at 100 µM in assay [1] (concentration 0.1 mM) was found to be 74.5 ± 9.3%.

Take `O=C(O)CNC(=O)C(Cc1ccccc1)C(=O)O` (centres unmarked) [Compound 10]: testing at 100 µM in assay [1] (concentration 0.1 mM) gave an inhibition of 91.2 ± 3.7%. Same read-out and setting: the result for `CCOC(=O)CNC(=O)C(Cc1ccc(-c2ccccc2)cc1)C(=O)OCC` (centres unmarked) [Compound 11] reads 85.7 ± 2.2%; that for `O=C(O)CCNC(=O)C(Cc1ccccc1)C(=O)O` (centres unmarked) [Compound 12], 69.5 ± 4.3%. `O=C(O)CC(=O)N[C@@H](Cc1ccccc1)C(=O)O` [Compound 13] had an inhibition at 1000 µM in assay [1] (concentration 1 mM) of 49.3 ± 1.2%. For orientation: % inhibition means the change of the read-out against control, counted positive when it falls. As for Asp-Phe, the “% inhibition” value in assay [1] (concentration 1 mM) is reported as 45.7%.

Consider Chymotrypsin, for which the “Hair growth inhibition 3 weeks” value in the assay on C3H mice (setting [4]) stood at 20.1. Turning to Phe-Asp, the “% inhibition” value in assay [1] (concentration 1 mM) is given as 85.4%. In the case of Phe-Gly, the “% inhibition” value in assay [1] (concentration 1 mM) was determined as 49.4%.

With Phe-Leu, in assay [1] (concentration 1 mM), the “% inhibition” value came out at 72.9%.

In the case of Phe-Phe, the “% inhibition” value in assay [1] (concentration 1 mM) came out at 85.7%. As for Phe-β-Ala, in assay [1] (concentration 0.1 mM), the “% inhibition” value was found to be 92.6%. Regarding Trypsin, the “Hair growth inhibition 3 weeks” value in the assay with C3H mice (setting [4]) is 25.6.

B1: Papain: proteolytic enzyme, papain powder (CALBIOCHEM-NOVABIOCHEM), 1% ethanol solution (protein, UniProt P00784 134-345, looked up)
Papain: IPEYVDWRQKGAVTPVKNQGSCGSCWAFSAVVTIEGIIKIRTGNLNEYSEQELLDCDRRSYGCNGGYPWSALQLVAQYGIHYRNTYPYEGVQRYCRSREKGPYAAKTDGVRQVQPYNEGALLYSIANQPVSVVLEAAGKDFQLYRGGIFVGPCGNKVDHAVAAVGYGPNYILIKNSWGTGWGENGYIRIKRGTGNSYGVCGLYTSSFYPVKN
With B1, in the assay with C3H mice (setting [4]), the “Hair growth inhibition 3 weeks” value is listed as 17.3.

Values taken from patent publication US7211278B2, “Treating method for suppressing hair growth” (Kao Corporation, priority 1999, dated 2007).
